Measured values from patent publication US20250144067A1, “PERSONALIZED STARVATION THERAPY FOR CANCER” (Faeth Therapeutics, Inc., priority 2021, published 2025).
Counter-ions that a name gives are not always drawn.

Assays:
[1] = system: NCI-H292 lung cancer cells; experiment: FDA drug screening, complete media vs cholesterol-free media with simvastatin (TABLE 2); assay type: cell-based, human; conditions: for Cholesterol-free media + simvastatin (0.04 μM) / Complete Media: NCI-H292 cells
[2] = system: NCI-H292 lung cancer cells; experiment: FDA drug screening, complete media vs cholesterol-free media without statin (TABLE 1); assay type: cell-based, human
[3] = cholesterol-free media with simvastatin 0.04 μM, cell growth value in FDA drug screen
[4] = complete media, cell growth value in FDA drug screen
[5] = complete media minus cholesterol-free media + simvastatin, >0 enhanced anti-cancer activity, about 0 neutral, <0 antagonist
[6] = Complete minus Cholesterol-free, >0 enhanced anti-cancer activity, about 0 neutral, <0 antagonist
[7] = NCI-H292 cells, cholesterol-free media without statin
[8] = FDA drug library screen, cholesterol-free media with simvastatin 0.04 μM
[9] = FDA drug library screen, complete media
[10] = complete media vs cholesterol-free media + simvastatin (0.04 μM), >0 enhanced anti-cancer activity, about 0 neutral, <0 antagonist
[11] = Complete minus Cholesterol-free, greater than 0 enhanced anti-cancer activity, about 0 neutral, below 0 antagonist
[12] = NCI-H292 cells, FDA drug library screen, cholesterol-free media without statin
[13] = NCI-H292 cells, FDA drug library screen, complete media
[14] = cholesterol-free media with simvastatin 0.04 μM, FDA drug library screen (TABLE 2)
[15] = complete media, FDA drug library screen (TABLE 2)
[16] = complete media minus cholesterol-free media + simvastatin (0.04 μM), >0 enhanced anti-cancer activity, about 0 neutral, <0 antagonist
[17] = NCI-H292 cells, cholesterol-free media without statin, FDA drug library screen
[18] = NCI-H292 cells, complete media, FDA drug library screen
[19] = FDA library drug in cholesterol-free media with simvastatin 0.04 μM
[20] = FDA library drug in complete media
[21] = complete vs cholesterol-free media, greater than 0 enhanced anti-cancer activity, about 0 neutral, below 0 antagonists
[22] = complete vs cholesterol-free media, >0 enhanced anti-cancer activity, about 0 neutral, <0 antagonist
[23] = drug in cholesterol-free media with simvastatin 0.04 μM
[24] = Complete minus Cholesterol-free, greater than 0 enhanced anti-cancer activity, about 0 neutral, below 0 antagonists
[25] = NCI-H292 cells in cholesterol-free media without statin
[26] = NCI-H292 cells in complete media
[27] = Complete minus Cholesterol-free, […]

| SMILES | Difference [2, 6] | Cholesterol-free [2, 7] | Complete ([2]; NCI-H292 cells, complete media) | Cholesterol-free media + simvastatin (0.04 μM) [1, 8] | Complete Media [1, 9] | Difference [1, 10] | Cholesterol-free [2, 17] | Complete [2, 18] | also measured |
| --- | --- | --- | --- | --- | --- | --- | --- | --- | --- |
| CC(C)c1nc(N(C)S(C)(=O)=O)nc(-c2ccc(F)cc2)c1/C=C/[C@@H](O)C[C@@H](O)CC(=O)O [Rosuvastatin (Calcium)] | −0.24 | 1.156 | 0.9201 | – | – | – | – | – | Cholesterol-free media + simvastatin (0.04 μM) [1, 3]: 0.9188; Complete Media [1, 4]: 1.001; Difference [1, 5]: 0.08 |
| CCCN(CCc1cccs1)[C@H]1CCc2c(O)cccc2C1 [Rotigotine (Hydrochloride)] | – | – | – | 0.8026 | 0.6752 | −0.13 | – | – | Difference [2, 11]: −0.08; Cholesterol-free [2, 12]: 0.8788; Complete [2, 13]: 0.7943 |
| CCCN(CCc1cccs1)[C@H]1CCc2c(O)cccc2C1 [Rotigotine] | 0.07 | – | – | – | – | – | 0.9004 | 0.9685 | Cholesterol-free media + simvastatin (0.04 μM) [1, 14]: 1.128; Complete Media [1, 15]: 1.07; Difference [1, 16]: −0.06 |
| COc1cc2c(cc1OC)[C@@H]1Cc3ccc(OC)c(OC)c3CN1CC2 [Rotundine] | −0.21 | 1.07 | 0.8588 | – | – | −0.27 | – | – | Cholesterol-free media + simvastatin (0.04 μM) [1, 19]: 1.094; Complete Media [1, 20]: 0.8277 |
| Cc1nc(C(=O)NCC(=O)O)c(O)c2ccc(Oc3ccccc3)cc12 [Roxadustat] | – | – | – | – | – | – | – | – | Cholesterol-free media + simvastatin (0.04 μM) [1, 3]: 1.201; Complete Media [1, 4]: 1.327; Difference [1, 5]: 0.13; Difference [2, 11]: −0.11; Cholesterol-free [2, 12]: 1.074; Complete [2, 13]: 0.9662 |
| CC(=O)OCC(=O)NCCCOc1cccc(CN2CCCCC2)c1.Cl [Roxatidine (Acetate Hydrochloride)] | – | 1.511 | 1.141 | 1.117 | 1.004 | −0.11 | – | – | Difference [2, 21]: −0.37 |
| CC[C@H]1OC(=O)[C@H](C)[C@@H](O[C@H]2C[C@@](C)(OC)[C@@H](O)[C@H](C)O2)[C@H](C)[C@@H](O[C@@H]2O[C@H](C)C[C@H](N(C)C)[C@H]2O)[C@](C)(O)C[C@@H](C)/C(=N\OCOCCOC)[C@H](C)[C@@H](O)[C@]1(C)O [Roxithromycin] | – | – | – | 0.9837 | 0.8382 | −0.15 | 0.9904 | 1.336 | Difference [2, 22]: 0.35 |
| CNCc1ccc(-c2[nH]c3cc(F)cc4c3c2CCNC4=O)cc1 [Rucaparib (Camsylate)] | −0.26 | 1.063 | 0.7996 | – | – | −0.28 | – | – | Cholesterol-free media + simvastatin (0.04 μM) [1, 19]: 1.277; Complete Media [1, 20]: 0.994 |
| CNCc1ccc(-c2[nH]c3cc(F)cc4c3c2CCNC4=O)cc1 [Rucaparib] | −0.02 | – | – | – | – | −0.34 | 0.9041 | 0.881 | Cholesterol-free media + simvastatin (0.04 μM) [1, 19]: 1.04; Complete Media [1, 20]: 0.7044 |
| NC(=O)c1cn(Cc2c(F)cccc2F)nn1 [Rufinamide] | 0.00 | – | – | 0.995 | 0.8999 | −0.10 | 0.9822 | 0.9785 | – |
| CN1CCN(c2c(F)cc3c(=O)c(C(=O)O)cn4c3c2SCC4)CC1 [Rufloxacin hydrochloride] | −0.28 | 1.291 | 1.016 | 0.949 | 1.098 | – | – | – | Difference [1, 5]: 0.15 |
| C[C@@H]1O[C@@H](OC[C@H]2O[C@@H](Oc3c(-c4ccc(O)c(O)c4)oc4cc(O)cc(O)c4c3=O)[C@H](O)[C@@H](O)[C@@H]2O)[C@H](O)[C@H](O)[C@H]1O [Rutin] | – | – | – | – | – | −0.22 | 1.229 | 1.309 | Cholesterol-free media + simvastatin (0.04 μM) [1, 23]: 1.71; Complete Media ([1]; drug in complete media): 1.488; Difference [2, 22]: 0.08 |
| N#CC[C@H](C1CCCC1)n1cc(-c2ncnc3[nH]ccc23)cn1 [Ruxolitinib (S enantiomer)] | – | – | – | – | – | −0.26 | – | – | Cholesterol-free media + simvastatin (0.04 μM) [1, 23]: 0.9634; Complete Media ([1]; drug in complete media): 0.7007; Difference [2, 24]: −0.48; Cholesterol-free [2, 25]: 1.03; Complete [2, 26]: 0.5541 |
| N#CC[C@H](C1CCCC1)n1cc(-c2ncnc3[nH]ccc23)cn1 [Ruxolitinib] | −0.01 | – | – | 0.6455 | 0.5664 | −0.08 | 0.6188 | 0.6101 | – |
| C[C@H](C(=O)O)c1cccc(C(=O)c2ccccc2)c1 [S-(+)-Ketoprofen] | – | 1.312 | 0.984 | – | – | −0.21 | – | – | Cholesterol-free media + simvastatin (0.04 μM) [1, 23]: 0.9554; Complete Media ([1]; drug in complete media): 0.7437; Difference [2, 21]: −0.33 |
| C[S+](CC[C@H](N)C(=O)O)C[C@H]1O[C@@H](n2cnc3c(N)ncnc32)[C@H](O)[C@@H]1O.Cc1ccc(S(=O)(=O)[O-])cc1 (stereo partly drawn) [S-Adenosyl-L-methionine (tosylate)] | – | – | – | 1.239 | 1.842 | – | 0.8583 | 1.043 | Difference [1, 5]: 0.60; Difference [2, 22]: 0.19 |
| O=C1NS(=O)(=O)c2ccccc21 [Saccharin] | 0.01 | – | – | 0.8779 | 0.7765 | −0.10 | 0.9292 | 0.9415 | – |
| CCOC(=O)[C@H](C)C[C@@H](Cc1ccc(-c2ccccc2)cc1)NC(=O)CCC(=O)O [Sacubitril hemicalcium salt] | – | – | – | – | – | – | 0.6536 | 1.134 | Cholesterol-free media + simvastatin (0.04 μM) [1, 14]: 1.02; Complete Media [1, 15]: 1; Difference [1, 16]: −0.02; Difference [2, 22]: 0.48 |
| CCOC(=O)[C@H](C)C[C@@H](Cc1ccc(-c2ccccc2)cc1)NC(=O)CCC(=O)O [Sacubitril] | −0.30 | 1.009 | 0.7049 | – | – | – | – | – | Cholesterol-free media + simvastatin (0.04 μM) [1, 3]: 1.492; Complete Media [1, 4]: 1.622; Difference [1, 5]: 0.13 |
| C[C@H](NCc1ccc(OCc2cccc(F)c2)cc1)C(N)=O [Safinamide] | – | – | – | – | – | – | – | – | Cholesterol-free media + simvastatin (0.04 μM) [1, 14]: 1.059; Complete Media [1, 15]: 1.012; Difference [1, 16]: −0.05; Difference [2, 11]: −0.13; Cholesterol-free [2, 12]: 1.086; Complete [2, 13]: 0.9537 |
| NC(=O)c1ccccc1O [Salicylamide] | – | – | – | – | – | – | – | – | Cholesterol-free media + simvastatin (0.04 μM) [1, 14]: 1.206; Complete Media [1, 15]: 1.141; Difference [1, 16]: −0.07; Difference [2, 24]: −0.58; Cholesterol-free [2, 25]: 1.486; Complete [2, 26]: 0.907 |
| O=C(Nc1ccccc1)c1ccccc1O [Salicylanilide] | – | – | – | – | – | – | – | – | Cholesterol-free media + simvastatin (0.04 μM) ([1]; cholesterol-free media with simvastatin 0.04 μM, […]): 1.321; Complete Media ([1]; complete media, […]): 1.359; Difference ([1]; complete media minus cholesterol-free media + simvastatin, […]): 0.04; Difference [2, 27]: −0.19; Cholesterol-free [2, 12]: 1.231; Complete [2, 13]: 1.046 |
| O=C(O)c1ccccc1O [Salicylic acid] | – | – | – | 0.9788 | 0.8703 | −0.11 | – | – | Difference [2, 11]: −0.09; Cholesterol-free [2, 12]: 0.9773; Complete [2, 13]: 0.8829 |
| OCc1cc(C(O)CNCCCCCCOCCCCc2ccccc2)ccc1O (stereo not drawn) [Salmeterol (xinafoate)] | – | 1.696 | 1.368 | 0.9341 | 1.186 | – | – | – | Difference [1, 5]: 0.25; Difference [2, 21]: −0.33 |
| OCc1cc(C(O)CNCCCCCCOCCCCc2ccccc2)ccc1O (stereo not drawn) [Salmeterol] | −0.01 | – | – | 0.6428 | 0.8345 | – | 0.865 | 0.8548 | Difference [1, 5]: 0.19 |
| O=C(Oc1ccccc1C(=O)O)c1ccccc1O [Salsalate] | – | 1.58 | 1.132 | – | – | – | – | – | Cholesterol-free media + simvastatin (0.04 μM) [1, 3]: 0.8804; Complete Media [1, 4]: 0.9361; Difference [1, 5]: 0.06; Difference [2, 21]: −0.45 |
| CC1=C2[C@H]3OC(=O)[C@@H](C)[C@@H]3CC[C@@]2(C)C=CC1=O [Santonin] | – | – | – | – | – | – | – | – | Cholesterol-free media + simvastatin (0.04 μM) [1, 23]: 1.229; Complete Media ([1]; drug in complete media): 1.004; Difference ([1]; complete media vs cholesterol-free media + simvastatin (0.04 μM), […]): −0.23; Difference [2, 27]: −0.53; Cholesterol-free [2, 25]: 1.389; Complete [2, 26]: 0.8572 |
| C[C@H](O)[C@H](O)[C@H]1CNc2nc(N)[nH]c(=O)c2N1 [Sapropterin (dihydrochloride)] | −0.20 | 1.242 | 1.038 | – | – | −0.16 | – | – | Cholesterol-free media + simvastatin (0.04 μM) [1, 23]: 1.145; Complete Media ([1]; drug in complete media): 0.9841 |
